Test results taken from patent US7910723B2, “IG20 splice variants therapeutics for cancer” (The Board of Trustees of the University of Illinois, priority 2006, dated 2011).

What was measured:
DR4 = assay: Association of exogenous MADD with DR4 in HEK293 cells (immunoprecipitation); type: cell-based
Description: (A) Phosphorylation status of MADD could influence its binding to DR4. HEK293 cells were transfected with wtMADD or MADD mutants. 36 h after transfection, the cells were harvested for immunoprecipitation using an anti-DR4 antibody followed by immunoblotting using an anti-YFP antibody to detect exogenous MADD. The membrane was reprobed with an anti-DR4 antibody to show the protein loading. (B) PI3K can influence the association of exogenous MADD with DR4. HEK293 cells were transfected with wtMADD. Twenty four hours after transfection, the cells were serum starved for 20 h. Further, they were treated with LY (10 μM) for 1 h, IGF-1 (150 ng/ml) for 20 minutes. Immunoprecipitation using an anti-DR4 antibody was followed by immunoblotting using anti-YFP or anti-DR4 antibody. (C) Akt can influence exogenous MADD association with DR4. HEK293 cells were co-transfected with wtMADD along with DN-Akt or the empty vector pcDNA3.1 (pcDNA). Thirty six hours after transfection, the cells were harvested for immunoprecipitation using anti-DR4 antibody followed by immunoblotting with an anti-YFP or an anti-DR4 antibody. (D) PI3K can influence the association of endogenous MADD with DR4. HeLa cells were serum starved for 20 h, then treated with LY (10 μM) for 1 h, IGF-1 (150 ng/ml) for 20 minutes. Immunoprecipitation using an anti-DR4 antibody was followed by immunoblotting with an anti-MADD or an anti-DR4 antibody. (E) Akt can influence the association of endogenous MADD with DR4. HeLa cells were transfected with DN-Akt or pcDNA. Thirty six hours after transfection, the cells were collected for immunoprecipitation using an anti-DR4 antibody followed by immunoblotting with an anti-MADD antibody.
MADD can bind to DR4 and thereby block the activation of the extrinsic apoptotic pathway. […] Stimulation of PI3K by IGF-1 increased, while inhibition by LY reduced, the association between wtMADD and DR4 (FIG. 15B). […] This interaction was reduced in the presence of LY (FIG. 15D) or DN-Akt (FIG. 15E).
Immunoprecipitation. Immunoprecipitations were performed using standard procedures. The samples were precleared with 10% (vol/vol) Protein-A agarose (Roche) for 1 h on a rocking platform. Specific antibodies were added and rocked for 1 h. Immunoprecipitates were captured by incubating with 10% (vol/vol) Protein-A agarose for an hour. The agarose beads were spun down and washed three times with NET/NP40 buffer (150 mM NaCl, 2 mM EDTA, 50 mM Tris-HCl pH 7.5, 0.1% NP-40). The antigens were released and denatured by adding SDS sample buffer. Immunoblots were prepared and analysed as described above.

HEK293 cells = assay: Cell death of HEK293 cells transfected with MADD constructs, Trypan Blue exclusion; type: cell-based; settings: HEK293, 48 h after transfection
Description: (A) HEK293 cells were transfected with various MADD constructs. Cell death was determined 48 h after transfection by Trypan Blue exclusion. *p<0.05 vs control. (B) Apoptosis analyzed by Cell Death Detection ELISA. *p<0.05 vs control. (C) Phosphorylatable but not the nonphosphorylatable MADD could rescue cell death upon endogenous MADD knockdown. HeLa cells were infected with the lentivirus harboring MADD shRNAi (RNAi) or its scrambled form (Scrambled RNAi). 24 h after infection, cells were transfected with the constructs of wtMADD-R or MADD3A-R. 48 h after transfection, cell death was determined by Trypan Blue exclusion. *p<0.05 vs RNAi alone. (D) Inhibition of Akt or PI3K could abolish the ability of wtMADD-R to rescue cell death upon endogenous MADD knockdown. HeLa cells were infected with the lentivirus harboring MADD shRNA (RNAi). 24 h after infection, cells were infected with the adenovirus harboring DN-Akt, and transfected with wtMADD-R. LY (10 μM) was added 6 h after transfection. 48 h after transfection, cell death was determined by Trypan Blue exclusion. Data are expressed as the mean±SEM of three independent experiments.
To see whether phosphorylation is required for the prosurvival function of MADD, WT and mutant MADD were tested. […] Since knockdown of endogenous MADD can cause cell death, it was tested whether the wtMADD or MADD3A could rescue this cell death. Only the shRNA resistant wtMADD (wtMADD-R) and not the MADD3A-R could rescue cell death upon endogenous MADD knockdown (FIG. 14C), which was abrogated in the presence either LY or DN-Akt (FIG. 14D). Taken together, the prosurvival function of MADD is dependent upon its phosphorylation by Akt.
Cell culture and viability assay. HEK293, HeLa and PA-1 cells were cultured. Cell death was determined by Trypan Blue exclusion and the numbers of Trypan Blue-positive and -negative cells were counted using a haemocytometer.

Akt = Akt (Homo sapiens, UniProt P31749); assay: Phosphorylation of MADD in vitro by Akt (kinase assay); type: biochemical; settings: GST-tagged recombinant MADD, rAkt, 1 h at 30° C.
Chain of Akt (P31749 whole entry): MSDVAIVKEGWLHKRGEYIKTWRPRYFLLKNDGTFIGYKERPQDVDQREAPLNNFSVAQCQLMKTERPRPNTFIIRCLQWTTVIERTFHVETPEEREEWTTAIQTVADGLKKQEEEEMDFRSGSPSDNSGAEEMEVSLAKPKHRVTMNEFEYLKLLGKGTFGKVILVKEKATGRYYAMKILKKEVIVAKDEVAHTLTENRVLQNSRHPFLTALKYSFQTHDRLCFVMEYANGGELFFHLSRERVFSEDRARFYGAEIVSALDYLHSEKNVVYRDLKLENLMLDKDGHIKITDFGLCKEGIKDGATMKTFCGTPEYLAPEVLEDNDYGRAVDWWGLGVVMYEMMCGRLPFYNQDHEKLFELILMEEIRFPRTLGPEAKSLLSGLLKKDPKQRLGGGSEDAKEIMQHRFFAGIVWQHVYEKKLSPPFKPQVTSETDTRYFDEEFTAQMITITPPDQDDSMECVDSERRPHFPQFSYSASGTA
Description: (A) In vitro phosphorylation of rMADD by Akt. GST-wtMADD or -MADD mutants were expressed in bacteria, purified, and then incubated with rAkt and γ[^32P] ATP. After 1 h incubation at 30° C., the products were resolved on SDS-PAGE and ^32P-labeled proteins were visualized by autoradiography. (B) MADD is labeled by [^32P]orthophosphate in vivo. HEK293 cells were transfected with wtMADD or MADD mutant constructs. Twenty-four hours after transfection cells were incubated with 0.3 mCi/ml [32P]orthophosphate for 6 h. MADD was immunoprecipitated with an anti-YFP antibody. The precipitated MADD was separated by SDS-PAGE, transferred to a nitrocellulose membrane, and subjected to autoradiography. Loaded MADD was visualized by staining the same membrane with an anti-YFP antibody. (C) HEK293 cells were transfected with cDNAs for wtMADD or MADD mutants and. 36 h later the cells were harvested for immunoblotting using the anti-phospho-S-70, -T-173 or -T-1041 antibodies. An anti-YFP antibody was used to detect exogenous MADD. (D) HEK293 cells were transfected with wtMADD and 24 hours later cells were serum starved for 20 h. Subsequently, they were treated with LY (10 μM) for 1 h and/or IGF-1 (150 ng/ml) for 20 minutes. The cell lysates were immunoblotted and probed with anti phospho-specific antibodies or an anti-YFP antibody. (E) HEK293 cells were co-transfected with wtMADD along with dominant negative Akt (DN-Akt) or the empty vector pcDNA3.1 (pcDNA). Immunoblots were probed with the anti phospho-specific antibodies or an anti-YFP antibody. (F) HeLa cells were serum starved for 20 h, treated with LY (10 μM) for 1 h, IGF-1 (150 ng/ml) for 20 minutes. Immunoblot was probed with the anti phospho-specific antibodies or an anti-MADD antibody.
To test whether MADD is a substrate of Akt, an in vitro assay was employed to test whether Akt could directly phosphorylate MADD. […] It was tested whether MADD could be phosphorylated in vivo. […] Second, three antibodies that specifically reacted with phosphorylated S70 (anti-phospho S70), T173 (anti-phospho T173) or T1041 (anti-phospho T1041) were raised, respectively. The phosphopeptides, CRQRRMpSLRDDTS (SEQ ID NO: 7) (S-70), GSRSRNSpTLTSL (SEQ ID NO: 8) (T-173), and KRKRSPpTESVNTP (SEQ ID NO: 9) (T-1041) were used to immunize the rabbits. Antisera were depleted of antibodies that recognize non-phosphorylated MADD by negatively selecting the antibodies using an identical non-phosphorylated peptide affinity column. Antibodies in the flow through were tested to ensure that they specifically bind only to the corresponding phosphorylated peptide and not the non-phosphorylated couterpart. […]

ERK1/2 = assay: TNF-α induced ERK phosphorylation in HeLa cells (immunoblot); type: cell-based; settings: TNF-α 50 ng/mL, untransduced
Description: (A) Time-kinetics of TNF-α induced ERK activation. HeLa cells (3×10^6 per 100 mm dish) were serum starved for 6 h and were either left untreated or treated with TNF-α (50 ng/mL) for different time periods as indicated. Cell lysates were analyzed for phosphorylated ERK or total ERK by immunoblot. (B) Down-modulation of endogenous IG20-SVs in HeLa cells. One microgram of total RNA obtained from HeLa cells 48 h post-transduction was used for reverse-transcription-polymerase chain reaction. The products were separated on a 2% agarose gel. Amplification of all four IG20-SVs was done using F2-B2 primers. […] HeLa cells (3×10^6 per 100 mm dish) were either untransduced or transduced with different lentiviruses expressing SCR, Mid and 13L ShRNA for different time periods as indicated. At the end of each time period, the cells were serum starved for 6 h and were either left untreated or treated with TNF-α (50 ng/mL) for 15 min. Cell lysates were analyzed for phosphorylated ERK or total ERK by immunoblot. The data shown is representative of at least 3 independent experiments.
(A) HeLa cells (3×10^6 per 100 mm dish) were transduced with different lentiviruses expressing SCR, Mid and 16E ShRNA for 48 h. The cells were then serum starved for 6 h and were either left untreated or treated with TNF-α (50 ng/mL) for 15 min. Cell lysates were analyzed for phosphorylated ERK or total ERK by immunoblot. (B) PA-1 cells (5×10^6 per 100 mm dish) were transduced with different lentiviruses expressing SCR, Mid and 13L ShRNA for 48 h. The cells were then serum starved for 6 h and were either left unstimulated or stimulated with TNF-α (50 ng/mL) for 15 min. Cell lysates were analyzed for phosphorylated ERK or total ERK by immunoblot. […] Cell lysates were analyzed for phosphorylated ERK or total ERK by immunoblot. […]
To gain insight into the time kinetics of TNF-α induced ERK phosphorylation, HeLa cells were treated with TNF-α (50 ng/mL) for different time periods. […] Down-modulation of IG20 transcripts upon treatment with different ShRNA expressing lentiviruses was monitored by RT-PCR. […]

Row | In vitro phosphorylation by Akt (Akt) | Substance | Association of exogenous MADD with DR4 (DR4) | Cell death upon enforced expression (HEK293 cells) | Time of maximum ERK phosphorylation (ERK1/2) [min]
1 |  | MADD3A: MADD mutant, all three residues (S70, T173, T1041) converted to alanine | almost non-existant | significant cell death | 
2 | reduced or absent | MADD70A: MADD mutant S70A |  | minimal effects on cell death | 
3 | reduced or absent | MADD173A: MADD mutant T173A |  | minimal effects on cell death | 
4 | reduced or absent | MADD1041A: MADD mutant T1041A |  | minimal effects on cell death | 
5 |  | TNF-α [reference compound] |  |  | 15
6 | phosphorylated by Akt | wtMADD: recombinant wild-type MADD | can associate with DR4 | could not induce cell death | 
